Laboratory results taken from patent publication US10815276B2, “Cell penetrating peptides and methods of making and using thereof” (Entrada Therapeutics, Inc., priority 2014, dated 2020).
Where “and” joins values, the source holds several entries; their conditions need not be identical. Equal entries are not always repeated. Where two headings read alike, the source gives them in different places. Starred links: 1 amine or outer side, 2 acyl side, 3 side chain; linkers in the order of their positions; H or OH if unused. Non-standard residues stand in square brackets, D forms with d. Residues, ends and D or L forms follow the SMILES beside them. No end group written: not given here. *: point of attachment. RhodamineB = CCN(CC)c1ccc2c(-c3ccccc3C(=O)*)c3ccc(=[N+](CC)CC)cc-3oc2c1; Trimesoyl = O=C(c1cc(C(=O)[*:2])cc(C(=O)[*:3])c1)[*:1]; 2Nal = N[C@@H](Cc1ccc2ccccc2c1)C(=O)O; Dap = NC[C@H](N)C(=O)O

What was measured:
pKa of CAP fluorophore = assay type: physicochemical; conditions: deprotonated state fluorescent
[1] = tested on: cell type (e.g., HeLa cells); assay: Cellular uptake efficiency of cyclic CPPs; assay type: cell-based; conditions: relative to cFΦR4 (290-1F, 100%)
Experimental: In particular embodiments, uptake efficiency is determined by comparing (i) the amount of a cyclic cell-penetrating peptide of the invention internalized by a cell type (e.g., HeLa cells) to (ii) the amount of c(FΦRRRRQ) (290-1F) internalized by the same cell type. To measure cellular uptake efficiency, the cell type may be incubated in the presence of a cell-penetrating peptide of the invention for a specified period of time (e.g., 30 minutes, 1 hour, 2 hours, etc.) after which the amount of the cell-penetrating peptide internalized by the cell is quantified. Separately, the same concentration of c(FΦRRRRQ) (290-1F) is incubated in the presence of the cell type over the same period of time, and the amount of the second peptide internalized by the cell is quantified. Quantification can be achieved by fluorescently labeling the cell-penetrating peptide (e.g., with a FTIC dye) and measuring the fluorescence intensity using techniques well-known in the art.
(§1) Also discussed herein are the CPP sequences in Table 16. All uptake/delivery efficiencies are in Table 17 are relative to that of cFΦR4 (290-1F, 100%). SUV1 are small unilamellar vesicles that mimic the neutral outer membrane of mammalian cells [45% phosphatidylcholine (PC), 20% phosphatidylethanolamine (PE), 20% sphingomyelin (SM), and 15% cholesterol (CHO)]. SUV2 are small unilamellar vesicles that mimic the negatively charged endosomal membrane of mammalian cells [50% PC, 20% PE, 10% phosphatidylinositol (PI), and 20% bis(monoacylglycerol)phosphate].

[2] = tested on: SUV2 (vesicles that mimic the negatively charged endosomal membrane of mammalian cells); assay: Fluorescence polarization membrane binding, SUV2
From the text: as §1
(§2) Measurements were carried out fluorescence polarization using FITC-labeled cyclic peptides against increasing concentrations of vesicles. Experiments were performed at pH 7.4 and 5.5 (pH inside late endosomes).

mammalian cells = conditions: Qian et al. 2013; cited from earlier work
HeLa cells [3] = assay: Effect on endocytosis of dextran^Alexa488, flow cytometry; assay type: cell-based, human; conditions: 1 μM cFΦR4, 100 μM dextran^Alexa488, 30 min
Experimental: HeLa cells were treated with clear DMEM containing no supplement, 1 μM cFΦR4 only, 100 μM dextran^Alexa488 only, or both 1 μM cFΦR4 and 100 μM dextran^Alexa488. MFI, mean fluorescence intensity.
Following adherence, cells were treated with clear DMEM containing no supplement, 1 μM cFΦR4 peptide, 100 μM dextran^Alexa488 (Life Technologies, D-22910), or both 1 μM cyclic peptide and 100 μM dextran^Alexa488 for 30 min under standard cell culture conditions. The cells were washed with DPBS twice, removed from the plate with 0.25% trypsin, diluted into clear DMEM containing 10% FBS, pelleted at 300 g for 5 min, washed once with DPBS and resuspended in 200 μL of DPBS. Whole-cell dextran uptake was analyzed on a BD Accuri C6 flow cytometer using the manufacturer FL1 laser and filter set.

HeLa cells [4] = assay: Cytoplasmic delivery of pCAP-containing peptides, flow cytometry; conditions: pCAP-containing peptide as cargo
[5] = tested on: SUV1 (vesicles that mimic the neutral outer membrane of mammalian cells); assay: Fluorescence polarization membrane binding, SUV1
From the text: as §1, §2

[6] = tested on: HEK293, MCF-7, A549, H1650, and H1299; assay: MTT cytotoxicity assay; assay type: cell-based, human
Experimental: MTT assays were performed to evaluate cyclic peptide's cytotoxicity against several mammalian cell lines (Mosmann, T. J. Immunol. Methods, 1983, 65, 55-63). One hundred μL of MCF-7, HEK293, H1299, H1650, A549 (1×10^5 cells/mL) cells were placed in each well of a 96-well culture plate and allowed to grow overnight. Varying concentrations of the peptide (5 or 50 μM) were added to the each well and the cells were incubated at 37° C. with 5% CO2 for 24 to 72 h. Ten μL of MTT stock solution was added into each well. Addition of 10 μL of the solution to the growth medium (no cell) was used as a negative control. The plate was incubated at 37° C. for 4 h. Then 100 μL of SDS-HCl solubilizing buffer was added into each well, and the resulting solution was mixed thoroughly. The plate was incubated at 37° C. for another 4 h. The absorbance of the formazan product was measured at 570 nm using a Molecular Devices Spectramax M5 plate reader. Each experiment was performed in triplicates and the cells without any peptide added were treated as control.

HeLa cells [7] = assay: FACS uptake of FITC-labeled peptides; assay type: cell-based, human; conditions: 5 μM, 2 h
HeLa cells [8] = assay: Live-cell confocal microscopy of FITC-labeled peptides; assay type: cell-based, human; conditions: 5 μM
Experimental: To detect peptide internalization, 1 mL of HeLa cell suspension (5×10^4 cells) was seeded in a 35 mm glass-bottomed microwell dish (MatTek) and cultured overnight. Cells were gently washed with DPBS twice and treated with FITC labeled peptides (5 μM) and dextran^Rho (0.5 mg mL^−1) in phenol-red free DMEM containing 1% serum at 37° C. for 1 h in the presence of 5% CO2. After removal of the medium, the cells were gently washed with DPBS twice and incubated with 5 μM DRAQS in DPBS for 10 min. The cells were again washed with DPBS twice and imaged on a Visitech Infinity 3 Hawk 2D-array live cell imaging confocal microscope. Images were captured under the same parameters and adjusted under the same setting using MetaMorph (Molecular Devices).

[9] = tested on: α-chymotrypsin and trypsin; assay: Peptide proteolysis stability assay; assay type: in vitro ADME; conditions: 37° C.
Experimental: The stability tests were carried out by slightly modifying a previously reported procedure (Frackenpohl, J et al. Chembiochem 2001, 2, 445). 24 μL of 1.5 mM peptide solution was incubated at 37° C. with 30 μL 50 μM of α-chymotrypsin and 30 μL 50 μM of trypsin in 200 μL of working buffer (50 mM Tris-HCl, pH 8.0, NaCl (100 mM), CaCl2 (10 mM)). At various time points (0-12 h), 40 μL aliquots were withdrawn and mixed with 40 μL of 15% trichloroacetic acid and incubated at 4° C. overnight. The final mixture was centrifuged at 15,000 rpm for 10 min in a microcentrifuge, and the supernatant was analyzed by reversed-phase HPLC equipped with a C18 column (Waters). The amount of remaining peptide (%) was determined by integrating the area underneath the peptide peak (monitored at 214 nm) and compared with that of control reaction (no proteases).

HEK293 cells = assay: FACS uptake of rhodamine-labeled bicyclic vs monocyclic peptide; assay type: cell-based, human
From the text: In recent years, there has been much interest in cyclic peptides as therapeutic agents and biomedical research tools (Driggers, E M et al. Nat. Rev. Drug Discov., 2008, 7, 608-624; Marsault, E and Peterson, M L. J. Med. Chem., 2011, 54, 1961-2004). For example, cyclic peptides are effective for inhibition of protein-protein interactions (Lian, W et al. J. Am. Chem. Soc., 2013, 135, 11990-11995; Liu, T et al. ACS Comb. Sci., 2011, 13, 537-546; Dewan, V et al. ACS Chem. Biol., 2012, 7, 761-769; Wu, X et al. Med. Chem. Commun., 2013, 4, 378-382), which are challenging targets for conventional small molecules. A major obstacle in developing cyclic peptide therapeutics is that they are generally impermeable to the cell membrane (Kwon, Y U and Kodadek, T. Chem. Biol., 2007, 14, 671-677; Rezai, T et al. J. Am. Chem. Soc., 2006, 128, 2510-2511; Chatterjee, J et al. Acc. Chem. Res., 2008, 41, 1331-1342). […] The bicyclic peptides were readily synthesized by forming three amide bonds between a trimesoyl scaffold and three amino groups on the corresponding linear peptide (i.e., the N-terminal amine, the side chain of a C-terminal diaminopropionic acid (Dap), and the side chain of a lysine (or ornithine, Dap) imbedded in between the CPP and target-binding motifs) (Lian, W et al. J. Am. Chem. Soc., 2013, 135, 11990-11995). […]

NIH 3T3 cells = assay: Anti-pY western blot of global pY protein levels; assay type: cell-based; conditions: 0-500 nM, 2 h
Experimental: NIH 3T3 cells were cultured in full growth media to reach 80% confluence. The cells were starved in serum free media for 3 h and treated with different concentrations of cFΦR4-PTP1B or untagged PTP1B for 2 h, followed by 30 min incubation in media supplemented with 1 mM sodium pervanadate. The solutions were removed and the cells were washed with cold DPBS twice. The cells were detached and lysed in 50 mM Tris-HCl, pH 7.4, 150 mM NaCl, 1% NP-40, 10 mM sodium pyrophosphate, 5 mM iodoacetic acid, 10 mM NaF, 1 mM EDTA, 2 mM sodium pervanadate, 0.1 mg/mL phenylmethanesulfonyl fluoride, 1 mM benzamidine, and 0.1 mg/mL trypsin inhibitor. After 30 min incubation on ice, the cell lysate was centrifuged at 15,000 rpm for 25 min in a microcentrifuge. The total cellular proteins were separated by SDS-PAGE and transferred electrophoretically to PVDF membrane, which was immunoblotted using anti-pY antibody 4G10.
NIH 3T3 cells were incubated for 2 h in the presence of untagged PTP1B or cFΦR4-PTP1B and their global pY protein levels were analyzed by anti-pY western blotting (FIG. 12A). […] Several proteins in the 150-200 kD range were completely dephosphorylated upon the addition of 62 nM cFΦR4-PTP1B, whereas proteins of ˜80 kD remained phosphorylated at 500 nM cFΦR4-PTP1B.

Aqueous solubility = assay type: physicochemical

Compound: NC(Cc1cc(=O)oc2cc(O)ccc12)C(=O)O (centres unmarked) [CAP, coumaryl aminopropionic acid]
- pKa (pKa of CAP fluorophore): 7.8

Compound: N=C(N)NCCC[C@@H]1NC(=O)[C@H](CCCNC(=N)N)NC(=O)[C@H](CCCNC(=N)N)NC(=O)[C@H](Cc2ccc3ccccc3c2)NC(=O)[C@H](Cc2ccccc2)NC(=O)[C@H](CCC(N)=O)NC(=O)[C@H](CCCNC(=N)N)NC1=O [cFΦR4, cyclo(FΦRRRRQ)] (cyclo(F[2Nal]RRRRQ))
- Uptake Efficiency (%) [1]: 100%
- Kd ([2]; pH 5.5, read-out: Membrane Binding KD (mM) SUV2 pH 5.5): 0.63 mM
- Kd ([2]; pH 7.4, read-out: Membrane Binding KD (mM) SUV2 pH 7.4): 0.66 mM
- Efficiency of entering cytoplasm and nucleus higher than nonaarginine (R9) (mammalian cells): 2-5 fold
- Increase in internalization of dextran^Alexa488 (HeLa cells [3]): 15%
- Delivery efficiency higher than R9, Antp, and Tat (HeLa cells [4]): 4-12 fold and 3.7-12 fold
- Kd ([5]; pH 5.5, read-out: Membrane Binding KD (mM) SUV1 pH 5.5): 1.1 mM
- Kd ([5]; pH 7.4, read-out: Membrane Binding KD (mM) SUV1 pH 7.4): 4 mM
- Growth inhibition after 72 h ([6]; 50 μM): up to 20%
- Growth inhibition after 24 or 48 h ([6]; up to 50 μM): no significant growth inhibition

Compound: CH3CH2CH2CO-FΦRRRRUK(FITC)-NH2 [Peptide 2 (Example 2)]
- Mean fluorescence intensity (MFI), total intracellular FITC fluorescence (HeLa cells [7]): 5530 arbitrary units (AU)
- Intracellular FITC fluorescence (confocal) (HeLa cells [8]): much weaker intracellular fluorescence
- Half-life with protease cocktail [9]: ~20 min

Compound: [Tm(AAAAA)K(RRRRΦF)J]-K(Rho) (Trimesoyl-AAAAAKRRRR[2Nal]F[Dap]K(RhodamineB); linker (positions not given here) via Trimesoyl; not fully specified (C-terminus, bridges); printed as [Tm(AAAAA)K(RRRRΦF)J]-K(Rho)) [bicyclo(FΦR4-A5)^Rho]
- Uptake more efficient than corresponding monocyclic peptide (compound 17) (HEK293 cells): ~3 fold

Compound: cFΦR4-PTP1B: cFΦR4 conjugated to ybbR-tagged PTP1B catalytic domain via a thioether bond
- Global pY protein levels (NIH 3T3 cells): concentration-dependent decrease in pY levels

Compound: cyclo(FΦRRRRQ)-FFFF-K(Rho) (cyclo(F[2Nal]RRRRQFFFFK(RhodamineB)); not fully specified (C-terminus, bridges); printed as cyclo(FΦRRRRQ)-FFFF-K(Rho)) [cFΦR4-F4]
- Aqueous solubility (Aqueous solubility): poor
